Measurements published in PubChem BioAssay (NCI).
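Assay format: 96-well plates, 48-hour exposure. GI50 marks 50% less growth. At the TGI there is no net growth.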

Key:
Test in all cases: DTP human tumour cell line panel, 48 h
[1] = tested on: UO-31 renal
[2] = tested on: IGROV1 ovarian
[3] = tested on: HT29 colon
[4] = tested on: HCT-116 colon
[5] = tested on: MCF7 breast
[6] = tested on: M14 melanoma
[7] = tested on: SNB-19 CNS
[8] = tested on: DU-145 prostate
[9] = tested on: T-47D breast
[10] = tested on: RXF 393 renal

Row | Compound | TGI [1] [µM] | TGI [2] [µM] | TGI [3] [µM] | TGI [4] [µM] | TGI [5] [µM] | TGI [6] [µM] | TGI [7] [µM] | TGI [8] [µM] | TGI [9] [µM] | TGI [10] [µM] | GI50 [1] [µM] | GI50 [2] [µM] | GI50 [3] [µM] | GI50 [4] [µM] | GI50 [5] [µM] | GI50 [6] [µM] | GI50 [10] [µM] | GI50 [7] [µM] | GI50 [8] [µM] | GI50 [9] [µM]
1 | O=S(=O)(F)Cc1ccccc1 | > 100 | > 100 | > 100 | > 100 | > 100 | > 100 | > 100 | > 100 | – | – | – | – | – | – | – | – | – | – | – | –
2 | CC(=O)CC[N+](C)(C)C | 67.8 | 53.4 | 53.5 | 54.4 | 64.8 | 52.1 | > 36.9 | > 79 | 52.7 | 20.1 | – | – | – | – | – | – | – | – | – | –
3 | COc1ccc(CCN2CCCn3c2nc2ccccc2c3=O)cc1 | > 100 | > 100 | > 28.4 | > 100 | > 100 | > 100 | > 100 | > 64.8 | – | 35.8 | 0.876 | 0.109 | 0.0365 | 0.0493 | 0.0295 | 0.0463 | 0.2 | 0.629 | 0.211 | –
4 | CC(=O)OC1(Sc2ccccc2)CC2[C@H]3COC(C)(C)O[C@H]3CC[C@@]2(C)CC1=O (some centres undefined) | > 100 | > 100 | > 100 | > 100 | – | > 100 | > 100 | – | – | > 100 | – | – | – | – | – | – | – | – | – | –
5 | Cc1nc2ccccc2c(=O)n1/N=C(\N=Nc1ccc(Cl)cc1)c1cccc(-c2ccco2)c1 | 43.1 | > 100 | > 100 | 95.5 | – | > 100 | – | – | – | 76.8 | – | – | – | – | – | – | – | – | – | –
6 | COc1ccc(-n2cc(-c3cc(OC)c(OC)c(OC)c3)nc2SCc2cccc(C#N)c2)cc1OC | > 100 | > 100 | > 100 | > 100 | > 100 | > 100 | > 100 | > 100 | > 100 | – | > 100 | > 100 | 14.1 | 46 | 66.2 | > 100 | – | > 100 | > 100 | > 100
7 | S=C1SCC2CCCN12 (centres undefined) | > 100 | > 100 | > 100 | > 100 | – | > 100 | > 100 | – | – | > 100 | – | – | – | – | – | – | – | – | – | –
8 | Cc1c(C)c2cc3c(=O)c(CCl)coc3c(C)c2oc1=O | > 100 | > 100 | – | > 100 | – | > 100 | > 100 | – | – | > 100 | – | – | – | – | – | – | – | – | – | –
9 | N.N.N.N.N#N.N#N.[Cl-].[Os+6] | > 100 | > 100 | – | > 100 | – | > 100 | > 100 | – | – | > 100 | > 100 | > 100 | – | > 100 | – | > 100 | > 100 | > 100 | – | –
10 | CC1(Cl)C(=O)NC(=O)N([C@H]2C[C@H](O)[C@@H](CO)O2)C1N=[N+]=[N-] (some centres undefined) | > 100 | > 100 | > 100 | > 100 | – | > 100 | > 100 | – | – | > 100 | – | – | – | – | – | – | – | – | – | –
11 | COc1ccc2c(c1OC)C(=O)C2 | > 100 | – | > 100 | > 100 | – | > 100 | > 100 | – | – | > 100 | – | – | – | – | – | – | – | – | – | –
12 | COc1ccccc1/C=C1\C(=O)N(C(=O)Cc2ccccc2)N=C1C | > 100 | – | > 100 | > 100 | – | > 100 | > 100 | – | – | – | – | – | – | – | – | – | – | – | – | –
13 | COc1ccc(/C=C\c2cc(OC)c(OC)c(OC)c2)cc1NC(=O)/C=C/c1ccc(OC)c(OC)c1 | > 100 | > 100 | > 100 | > 100 | > 100 | > 100 | > 100 | > 100 | > 100 | – | 6.21 | 18.8 | 3.39 | 4.35 | 3.22 | 4.3 | – | 4.15 | 4.93 | 5.98
14 | CC1=CC(=O)NP(=O)(Oc2ccc(Cl)cc2)N1 (centres undefined) | > 100 | > 100 | > 100 | > 100 | – | > 100 | > 100 | – | – | > 100 | – | – | – | – | – | – | – | – | – | –
15 | COc1ccc([N+](=O)[O-])c2c(NCCCN(C)C)c(C)c(C)nc12 | > 100 | > 100 | > 100 | > 100 | > 100 | > 100 | > 100 | > 100 | > 100 | – | – | – | – | – | – | – | – | – | – | –
16 | CN(c1cccc(C(=O)O)c1)c1cc(O/N=[N+](\[O-])N(C)C)c([N+](=O)[O-])cc1[N+](=O)[O-] | > 100 | > 100 | > 100 | > 100 | > 100 | – | > 100 | > 100 | – | > 100 | > 100 | > 100 | > 100 | > 100 | 59.8 | – | > 100 | > 100 | > 100 | –
17 | CC(C)(C)C1=CC(=N/N=c2\scc(-c3ccccc3)n2Cc2ccccc2)C=C(C(C)(C)C)C1=O | > 100 | – | > 100 | > 100 | – | > 100 | > 100 | – | – | > 100 | – | – | – | – | – | – | – | – | – | –
18 | Cc1nc(-n2nc(-c3ccccc3)cc2-c2ccccc2)sc1C(=O)CC(=O)C(=O)Nc1ccc(Cl)c(Cl)c1 | > 100 | > 100 | > 100 | > 100 | – | > 100 | > 100 | – | – | > 100 | – | – | – | – | – | – | – | – | – | –
19 | N#CN1CC[C@@H]2CC3(CCC2C1)OCCO3 (some centres undefined) | > 100 | > 100 | > 100 | > 100 | – | > 100 | > 100 | – | – | > 100 | – | – | – | – | – | – | – | – | – | –
20 | COCN1COCN(C)C1=O | > 100 | > 100 | > 100 | > 100 | – | > 100 | > 100 | – | – | – | – | – | – | – | – | – | – | – | – | –
21 | CNc1c2ccccc2nc2occ(Cl)c12 | > 100 | > 100 | – | 40.5 | > 100 | > 100 | > 100 | > 100 | > 100 | 50.8 | 31.3 | 50.5 | – | 17.1 | 32.3 | 37.2 | 19.7 | 51.6 | 41.5 | 66.1
